Drawing on patent US11970465B1, “Ethyl {[4-benzoyl-5-(3-fluorophenyl)-4H-1,2,4-triazol-3-yl]thio}acetate as an antimicrobial compound” (priority 2023, dated 2024), this text covers melting point and antimicrobial activities for one molecule.

The subject of series [1] is different microbes (Bacillus cereus, Staphylococcus aureus, Pseudomonas aeruginosa, Escherichia coli, Aspergillus flavus, Chrysosporium keratinophilum). The experiment in a line: agar plate disc-diffusion antimicrobial test. The format is cell-based. The note with it: disc wetted with 10 μL of 10 mg/mL in DMSO; 37° C., 48 h (72 h for fungi); inhibition zones measured in mm but not given. The procedure: The agar plate disc-diffusion method was applied. Sterilized filter papers (6 mm in diameter) were wetted with 10 μL of a solution of ethyl {[4-benzoyl-5-(3-fluorophenyl)-4H-1,2,4-triazol-3-yl]thio}acetate (III) to be tested, containing 10 mg/mL in DMSO, and the discs were allowed to air dry. The discs were then placed onto the surface of agar plates (nutrient agar for bacteria and Sabouraud's dextrose agar for fungi) seeded with the test organism. Each plate contained 15 mL of the agar medium, previously seeded with 0.2 mL of the broth culture of each organism pregrown for 18 h. The plates were incubated at 37° C. for 48 h, and 72 h for fungi. The inhibition zones was measured in mm. Discs impregnated with DMSO were used as a control, and its inhibition zone was subtracted from the tested compound actual inhibition zone. […] The antibacterial activity was screened against gram positive bacteria namely Bacillus cereus and Staphylococcus aureus and gram-negative bacterial strains namely Pseudomonas aeruginosa and Escherichia coli, while the antifungal activity was screened against Aspergillus flavus and Chrysosporium keratinophilum.

For `CCOC(=O)CSc1nnc(-c2cccc(F)c2)n1C(=O)c1ccccc1` [III, ethyl {[4-benzoyl-5-(3-fluorophenyl)-4H-1,2,4-triazol-3-yl]thio}acetate], the melting point fell in the range of 154 to 155 °C. Further, in series [1], the antimicrobial activities result is given as “excellent antimicrobial activities”.
